Each structure is given as a SMILES string. *1 amine or outer side, *2 acyl side, *3 side chain or, on linkers, in order; H or OH if unused. Where a SMILES comes first, the peptide text is derived from it. Bridges are numbered along the chain shown (N, C = ends). [ ]: non-standard residue; d: D form. Leu(3R-O(AcLeu(3R-OH))) = CC(=O)N[C@H](C(=O)O[C@H](C(C)C)[C@H](N)C(=O)O)[C@H](O)C(C)C; X1 = CC(C)[C@@H](O[*:3])[C@H](N[*:1])C(=O)[*:2]; NMeT = CN[C@H](C(=O)O)[C@@H](C)O; dPhLac = O=C(O)[C@H](O)Cc1ccccc1; NMeA = CN[C@@H](C)C(=O)O; NMeDha = C=C(NC)C(=O)O

The target in assay [1] is T1, Guanine nucleotide-binding protein subunit alpha-11 (Homo sapiens, UniProt P29992).
T1 sequence (P29992 whole entry): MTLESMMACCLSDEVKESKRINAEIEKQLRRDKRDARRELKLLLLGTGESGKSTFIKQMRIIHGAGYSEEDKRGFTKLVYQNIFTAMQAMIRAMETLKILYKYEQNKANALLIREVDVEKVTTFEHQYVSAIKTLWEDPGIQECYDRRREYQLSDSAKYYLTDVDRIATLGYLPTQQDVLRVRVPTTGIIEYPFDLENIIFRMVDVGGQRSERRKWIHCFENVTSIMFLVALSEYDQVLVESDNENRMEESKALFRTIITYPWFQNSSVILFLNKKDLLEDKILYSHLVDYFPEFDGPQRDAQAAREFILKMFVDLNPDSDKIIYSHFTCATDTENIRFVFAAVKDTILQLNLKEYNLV
The experiment in a line: Inhibition of recombinant human Gq/11 coupled N-terminal 3His-tagged M1 receptor expressed in CHOK1 cells assessed as reduction in carbachol-induced IP1 accumulation pretreated for 1 hr followed by carbachol addition and subsequent incubation for 1 hr at 37 degC measured after 15 mins at room temperature by HTRF assay. The format is cell-based.

Assay [2] has as its target Guanine nucleotide-binding protein G(s) subunit alpha isoforms XLas (Homo sapiens, UniProt Q5JWF2). The experiment in a line: Inhibition of Gs coupled adrenergic beta2 receptor in HEK293 cells assessed as reduction in isoproterenol-induced cAMP production pretreated for 1 hr followed by isoproterenol addition and measured after 30 mins by FRET assay. It counts as cell-based. A general note: cAMP levels reflect the balance of adenylyl cyclase and phosphodiesterase activity.

Guanine nucleotide-binding protein G(s) subunit alpha isoforms XLas, sequence (Q5JWF2 whole entry, canonical isoform): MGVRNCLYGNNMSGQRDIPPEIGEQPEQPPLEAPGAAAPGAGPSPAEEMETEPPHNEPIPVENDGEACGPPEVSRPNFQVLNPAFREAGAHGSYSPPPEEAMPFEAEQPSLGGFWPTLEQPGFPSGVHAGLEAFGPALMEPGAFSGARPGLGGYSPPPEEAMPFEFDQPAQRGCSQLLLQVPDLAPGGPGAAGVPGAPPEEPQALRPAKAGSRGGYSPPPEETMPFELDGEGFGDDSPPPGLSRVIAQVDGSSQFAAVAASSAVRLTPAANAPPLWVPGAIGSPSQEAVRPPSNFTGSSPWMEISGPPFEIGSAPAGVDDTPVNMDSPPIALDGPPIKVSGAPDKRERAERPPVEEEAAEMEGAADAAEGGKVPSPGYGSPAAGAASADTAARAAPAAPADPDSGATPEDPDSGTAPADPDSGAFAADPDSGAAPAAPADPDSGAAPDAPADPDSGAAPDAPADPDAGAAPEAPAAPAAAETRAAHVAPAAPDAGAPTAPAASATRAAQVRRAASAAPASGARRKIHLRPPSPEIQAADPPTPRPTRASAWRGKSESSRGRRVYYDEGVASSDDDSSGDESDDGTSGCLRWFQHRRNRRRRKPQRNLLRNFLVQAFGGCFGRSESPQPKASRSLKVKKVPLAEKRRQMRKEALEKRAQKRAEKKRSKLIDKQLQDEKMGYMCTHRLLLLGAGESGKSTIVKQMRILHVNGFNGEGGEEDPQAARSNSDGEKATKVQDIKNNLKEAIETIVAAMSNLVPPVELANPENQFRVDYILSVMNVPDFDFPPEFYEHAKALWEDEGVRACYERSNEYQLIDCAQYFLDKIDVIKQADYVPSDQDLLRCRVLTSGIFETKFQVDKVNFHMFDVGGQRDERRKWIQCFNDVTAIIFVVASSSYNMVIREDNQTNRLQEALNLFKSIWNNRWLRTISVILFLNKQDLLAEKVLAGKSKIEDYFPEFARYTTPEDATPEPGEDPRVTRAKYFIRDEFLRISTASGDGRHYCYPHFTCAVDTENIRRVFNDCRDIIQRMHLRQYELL

For `C=C1C(=O)N[C@@H](C)C(=O)N(C)[C@@H](C)C(=O)N[C@@H]([C@H](OC(=O)[C@@H](NC(=O)CCCCC)[C@H](O)C(C)C)C(C)C)C(=O)N(C)[C@@H]([C@@H](C)OC)C(=O)O[C@H](C)[C@H](NC(C)=O)C(=O)O[C@H](Cc2ccccc2)C(=O)N1C`, the IC50 – broadly, the concentration that inhibits the measured activity by half – was 0.88 µM in assay [1] and > 100 µM in assay [2].

With `CO[C@H](C)[C@H]1C(=O)O[C@H](C)[C@H](NC(C)=O)C(=O)O[C@H](CC(C)C)C(=O)N(C)[C@H](CO)C(=O)N[C@@H](C)C(=O)N(C)[C@@H](C)C(=O)N[C@@H]([C@H](OC(=O)[C@@H](NC(C)=O)[C@H](O)C(C)C)C(C)C)C(=O)N1C`, the IC50 is > 50 µM in assay [1] and > 100 µM in assay [2].

Regarding `C=C1C(=O)N[C@@H](C)C(=O)N(C)[C@@H](C)C(=O)N[C@@H]([C@H](OC(=O)[C@@H](NC(C)=O)[C@H](O)C(C)C)C(C)C)C(=O)N(C)[C@@H]([C@@H](C)OC)C(=O)OC[C@H](NC(C)=O)C(=O)O[C@H](Cc2ccccc2)C(=O)N1C`, the figures for the IC50 in assay [1] and in assay [2] were 1.89 µM and > 100 µM, respectively.

Take `C=C1C(=O)N[C@@H](C)C(=O)N(C)[C@@H](C)C(=O)N[C@@H]([C@H](OC(=O)[C@@H](NC(C)=O)[C@H](O)C(C)C)C(C)C)C(=O)N(C)[C@@H]([C@@H](C)OC)C(=O)O[C@@H](C)[C@H](NC(C)=O)C(=O)O[C@H](Cc2ccccc2)C(=O)N1C`: the values for the IC50 in assay [1] and in assay [2] were > 50 µM and > 100 µM, respectively.

For `C=C1C(=O)N[C@@H](C)C(=O)N(C)[C@@H](C)C(=O)N[C@@H]([C@H](OC(=O)[C@@H](NC(C)=O)[C@H](O)C(C)C)C(C)C)C(=O)N(C)[C@@H]([C@@H](C)OC)C(=O)O[C@H](C)[C@H](NC(C)=O)C(=O)O[C@H](CC(C)C)C(=O)N1C`, the IC50 in assay [1] is 3.69 µM; in assay [2], > 100 µM.

For `C=C1C(=O)N[C@@H](C)C(=O)N(C)[C@@H](C)C(=O)N[C@@H]([C@H](OC(=O)[C@@H](NC(C)=O)[C@H](O)C(C)C)C(C)C)C(=O)N(C)[C@@H]([C@@H](C)OC)C(=O)O[C@H](C)[C@H](NC(C)=O)C(=O)O[C@H](Cc2ccccc2)C(=O)N1C`, the values for the IC50 in assay [1] and in assay [2] were 0.15 µM and > 100 µM, respectively.

With `C=C1C(=O)N[C@H](C)C(=O)N(C)[C@@H](C)C(=O)N[C@@H]([C@H](OC(=O)[C@@H](NC(C)=O)[C@H](O)C(C)C)C(C)C)C(=O)N(C)[C@@H]([C@@H](C)OC)C(=O)O[C@H](C)[C@H](NC(C)=O)C(=O)O[C@H](Cc2ccccc2)C(=O)N1C`, the IC50 in assay [1] came to 36.6 µM.

As to `C=C1C(=O)N[C@@H](C)C(=O)N(C)[C@@H](C)C(=O)N[C@@H]([C@H](OC(=O)[C@@H](NC(=O)c2ccccc2)[C@H](O)C(C)C)C(C)C)C(=O)N(C)[C@@H]([C@@H](C)OC)C(=O)O[C@H](C)[C@H](NC(C)=O)C(=O)O[C@H](Cc2ccccc2)C(=O)N1C`, the results for the IC50 in assay [1] and in assay [2] were 2.34 µM and > 100 µM, respectively.

Consider `C=C1C(=O)N[C@@H](C)C(=O)N(C)[C@@H](C)C(=O)N[C@@H]([C@H](OC(=O)[C@@H](NC(C)=O)[C@H](O)C(C)C)C(C)C)C(=O)N(C)[C@@H]([C@@H](C)OC)C(=O)O[C@H](C(C)C)[C@H](NC(C)=O)C(=O)O[C@H](Cc2ccccc2)C(=O)N1C` (Ac-[X1][dPhLac][NMeDha]A[NMeA][Leu(3R-O(AcLeu(3R-OH)))][NMeT](Me); ester 1-C), for which the figures for the IC50 in assay [1] and in assay [2] were 0.31 µM and > 100 µM, respectively.

Values taken from ChEMBL document CHEMBL4270579, “Structure-activity relationship and conformational studies of the natural product cyclic depsipeptides YM-254890 and FR900359” (Eur J Med Chem, 2018).
